ChEMBL document CHEMBL3779879, “Structural hybridization of three aminoglycoside antibiotics yields a potent broad-spectrum bactericide that eludes bacterial resistance enzymes” (2016)
Converted amounts (≈) assume the structure as drawn.

Legend:
Format in all cases: functional
[1] = tested on: Pseudomonas aeruginosa; test: Antibacterial activity against Pseudomonas aeruginosa expressing AAC(6')-II
[2] = tested on: Escherichia coli; test: Antibacterial activity against Escherichia coli expressing APH(3')-Ib
[3] = tested on: Acinetobacter baumannii; test: Antibacterial activity against Acinetobacter baumannii
[4] = tested on: Pseudomonas aeruginosa; test: Antibacterial activity against Pseudomonas aeruginosa expressing ANT(4')-II
[5] = tested on: Escherichia coli; test: Antibacterial activity against Escherichia coli ATCC 25922
[6] = tested on: Pseudomonas aeruginosa; test: Antibacterial activity against Pseudomonas aeruginosa ATCC 27853 expressing APH(3')-IIa
[7] = tested on: Staphylococcus aureus; test: Antibacterial activity against Staphylococcus aureus expressing ANT(4')-I
[8] = tested on: Escherichia coli; test: Antibacterial activity against Escherichia coli expressing AAC(3)-IV
[9] = tested on: Enterobacter cloacae; test: Antibacterial activity against Enterobacter cloacae expressing APH(3')-I, ANT(2'')-I, AAC(6')
[10] = tested on: Klebsiella pneumoniae; test: Antibacterial activity against Klebsiella pneumoniae ATCC 10031
[11] = tested on: Escherichia coli; test: Antibacterial activity against Escherichia coli expressing ANT(2'')-I
[12] = tested on: Staphylococcus aureus; test: Antibacterial activity against Staphylococcus aureus expressing AAC(6')/APH(2'')
[13] = tested on: Staphylococcus aureus; test: Antibacterial activity against Staphylococcus aureus expressing APH(3'/5'')-III
[14] = tested on: Staphylococcus aureus; test: Antibacterial activity against Staphylococcus aureus ATCC 29213
[15] = tested on: Acinetobacter baumannii; test: Antibacterial activity against Acinetobacter baumannii expressing AAC(3)-I, APH(3')-VI, ANT(2'')-I
[16] = tested on: Escherichia coli; test: Antibacterial activity against Escherichia coli expressing A-site methyltransferase ArmA

| SMILES | MIC [1] [µg/mL] | MIC [2] [µg/mL] | MIC [3] [µg/mL] | MIC [4] [µg/mL] | MIC [5] [µg/mL] | MIC [6] [µg/mL] | MIC [7] [µg/mL] | MIC [8] [µg/mL] | MIC [9] [µg/mL] | MIC [10] [µg/mL] | MIC [11] [µg/mL] | MIC [12] [µg/mL] | MIC [13] [µg/mL] | MIC [14] [µg/mL] | MIC [15] [µg/mL] | MIC [16] [µg/mL] |
| --- | --- | --- | --- | --- | --- | --- | --- | --- | --- | --- | --- | --- | --- | --- | --- | --- |
| NCC1=CC[C@@H](N)[C@@H](O[C@H]2[C@H](O[C@@H]3O[C@H](CO)[C@@H](O)[C@H]3O)[C@@H](O)[C@H](N)C[C@@H]2N)O1 | > 64 | 64 (≈ 152 µM) | > 64 | 64 (≈ 152 µM) | 64 (≈ 152 µM) | 16 (≈ 38.1 µM) | 16 (≈ 38.1 µM) | > 64 | > 64 | 16 (≈ 38.1 µM) | > 64 | > 64 | > 64 | 16 (≈ 38.1 µM) | > 64 | 64 (≈ 152 µM) |
| NCC[C@H](O)C(=O)N[C@@H]1C[C@H](N)[C@@H](O[C@H]2OC(CN)=CC[C@H]2N)[C@H](O[C@@H]2O[C@H](CO)[C@@H](O)[C@H]2O)[C@H]1O | 16 (≈ 30.7 µM) | 4 (≈ 7.67 µM) | 4 (≈ 7.67 µM) | 8 (≈ 15.3 µM) | 8 (≈ 15.3 µM) | 4 (≈ 7.67 µM) | 8 (≈ 15.3 µM) | 8 (≈ 15.3 µM) | > 64 | 4 (≈ 7.67 µM) | 8 (≈ 15.3 µM) | 16 (≈ 30.7 µM) | 16 (≈ 30.7 µM) | 8 (≈ 15.3 µM) | 8 (≈ 15.3 µM) | 8 (≈ 15.3 µM) |
| CN[C@@H]1[C@@H](O)[C@@H](O[C@@H]2[C@@H](O)[C@H](O[C@H]3OC(CN)=CC[C@H]3N)[C@@H](N)C[C@H]2N)OC[C@]1(C)O [SISOMICIN] | 32 (≈ 71.5 µM) | 0.25 (≈ 0.559 µM) | 0.5 (≈ 1.12 µM) | 1 (≈ 2.23 µM) | 0.5 (≈ 1.12 µM) | 0.5 (≈ 1.12 µM) | 1 (≈ 2.23 µM) | 32 (≈ 71.5 µM) | > 64 | 0.25 (≈ 0.559 µM) | 64 (≈ 143 µM) | > 64 | 0.25 (≈ 0.559 µM) | 0.5 (≈ 1.12 µM) | > 64 | > 64 |
| NCC1O[C@H](O[C@H]2[C@@H](O)[C@H](O[C@H]3[C@H](O)[C@@H](N)C[C@@H](N)[C@@H]3O[C@H]3O[C@H](CN)[C@@H](O)[C@H](O)[C@H]3N)O[C@@H]2CO)[C@H](N)[C@@H](O)[C@@H]1O (stereo not given in full) | 8 (≈ 13 µM) | 64 (≈ 104 µM) | 1 (≈ 1.63 µM) | 8 (≈ 13 µM) | 2 (≈ 3.25 µM) | 32 (≈ 52.1 µM) | > 64 | 2 (≈ 3.25 µM) | > 64 | 0.5 (≈ 0.813 µM) | 2 (≈ 3.25 µM) | > 64 | > 64 | 0.5 (≈ 0.813 µM) | > 64 | 1 (≈ 1.63 µM) |
| NCC[C@H](O)C(=O)N[C@@H]1C[C@H](N)[C@@H](O[C@H]2O[C@H](CN)[C@@H](O)[C@H](O)[C@H]2N)[C@H](O[C@@H]2O[C@H](CO)[C@@H](O)[C@H]2O)[C@H]1O | > 32 | 1 (≈ 1.8 µM) | 1 (≈ 1.8 µM) | > 32 | 2 (≈ 3.6 µM) | > 32 | > 32 | 2 (≈ 3.6 µM) | 32 (≈ 57.6 µM) | 1 (≈ 1.8 µM) | 4 (≈ 7.2 µM) | > 32 | > 32 | 8 (≈ 14.4 µM) | > 32 | 2 (≈ 3.6 µM) |
| CNCC1=CC[C@H](N)[C@H](O[C@H]2[C@H](O[C@@H]3O[C@H](CO)[C@@H](O[C@@H]4O[C@H](CN)[C@H](O)[C@@H](O)[C@@H]4N)[C@H]3O)[C@@H](O)[C@H](N)C[C@@H]2N)O1 | > 64 | > 64 | 4 (≈ 6.73 µM) | 4 (≈ 6.73 µM) | 8 (≈ 13.5 µM) | 2 (≈ 3.36 µM) | 2 (≈ 3.36 µM) | 8 (≈ 13.5 µM) | > 64 | 2 (≈ 3.36 µM) | 16 (≈ 26.9 µM) | > 64 | 16 (≈ 26.9 µM) | 1 (≈ 1.68 µM) | > 64 | 16 (≈ 26.9 µM) |
| NCC[C@H](O)C(=O)N[C@@H]1C[C@H](N)[C@@H](O[C@H]2OC(CN)=CC[C@H]2N)[C@H](O[C@@H]2O[C@H](CO)[C@@H](O[C@@H]3O[C@H](CN)[C@H](O)[C@@H](O)[C@@H]3N)[C@H]2O)[C@H]1O | 0.5 (≈ 0.733 µM) | 0.25 (≈ 0.367 µM) | 0.5 (≈ 0.733 µM) | 0.5 (≈ 0.733 µM) | 0.5 (≈ 0.733 µM) | 0.25 (≈ 0.367 µM) | 1 (≈ 1.47 µM) | 1 (≈ 1.47 µM) | 8 (≈ 11.7 µM) | 0.5 (≈ 0.733 µM) | 4 (≈ 5.87 µM) | 2 (≈ 2.93 µM) | 1 (≈ 1.47 µM) | 0.5 (≈ 0.733 µM) | 1 (≈ 1.47 µM) | 1 (≈ 1.47 µM) |
| N[C@@H]1CC=C(CO)O[C@@H]1O[C@H]1[C@H](O[C@@H]2O[C@H](CO)[C@@H](O)[C@H]2O)[C@@H](O)[C@H](N)C[C@@H]1N | > 64 | > 64 | > 64 | > 64 | > 64 | > 64 | > 64 | > 64 | > 64 | > 64 | > 64 | > 64 | > 64 | > 64 | > 64 | > 64 |
| CN[C@@H](C)[C@@H]1CC[C@@H](N)[C@@H](O[C@H]2[C@H](O)[C@@H](O[C@H]3OC[C@](C)(O)[C@H](NC)[C@H]3O)[C@H](N)C[C@@H]2N)O1 | 32 (≈ 67 µM) | 0.25 (≈ 0.523 µM) | 2 (≈ 4.19 µM) | 2 (≈ 4.19 µM) | 0.5 (≈ 1.05 µM) | 0.5 (≈ 1.05 µM) | 0.5 (≈ 1.05 µM) | 16 (≈ 33.5 µM) | 32 (≈ 67 µM) | 0.25 (≈ 0.523 µM) | 64 (≈ 134 µM) | > 64 | 0.5 (≈ 1.05 µM) | 0.5 (≈ 1.05 µM) | > 64 | > 64 |
| NC[C@H]1O[C@@H](O[C@H]2[C@@H](O)[C@H](O[C@@H]3[C@@H](O)[C@H](N)C[C@H](N)[C@H]3O[C@@H]3OC(CO)=CC[C@@H]3N)O[C@@H]2CO)[C@@H](N)[C@H](O)[C@H]1O (stereo in doubt) | > 64 | > 64 | > 64 | > 64 | > 64 | > 64 | 16 (≈ 27.5 µM) | > 64 | > 64 | > 64 | > 64 | > 64 | > 64 | 8 (≈ 13.8 µM) | > 64 | > 64 |
| NCC[C@H](O)C(=O)N[C@@H]1C[C@H](N)[C@@H](O[C@H]2O[C@H](CN)[C@@H](O)[C@H](O)[C@H]2O)[C@H](O)[C@H]1O[C@H]1O[C@H](CO)[C@@H](O)[C@H](N)[C@H]1O [AMIKACIN] | 4 (≈ 6.83 µM) | 0.5 (≈ 0.854 µM) | 2 (≈ 3.42 µM) | 32 (≈ 54.6 µM) | 2 (≈ 3.42 µM) | 2 (≈ 3.42 µM) | 64 (≈ 109 µM) | 2 (≈ 3.42 µM) | 64 (≈ 109 µM) | 0.5 (≈ 0.854 µM) | 4 (≈ 6.83 µM) | 64 (≈ 109 µM) | 8 (≈ 13.7 µM) | 2 (≈ 3.42 µM) | > 64 | > 64 |
| NC[C@H]1O[C@H](O[C@H]2[C@H](O[C@@H]3O[C@H](CO)[C@@H](O)[C@H]3O)[C@@H](O)[C@H](N)C[C@@H]2N)[C@H](N)[C@@H](O)[C@@H]1O [RIBOSTAMYCIN] | > 64 | > 64 | 8 (≈ 17.6 µM) | > 64 | 8 (≈ 17.6 µM) | > 64 | > 64 | > 64 | > 64 | 2 (≈ 4.4 µM) | 8 (≈ 17.6 µM) | > 64 | > 64 | 16 (≈ 35.2 µM) | > 64 | 8 (≈ 17.6 µM) |
| NC[C@@H]1O[C@H](O[C@H]2[C@@H](O)[C@H](O[C@@H]3[C@@H](O)[C@H](N)C[C@H](N)[C@H]3O[C@H]3O[C@H](CO)[C@@H](O)[C@H](O)[C@H]3N)O[C@@H]2CO)[C@H](N)[C@@H](O)[C@@H]1O [PAROMOMYCIN] | > 64 | > 64 | 4 (≈ 6.5 µM) | > 64 | 4 (≈ 6.5 µM) | > 64 | > 64 | 8 (≈ 13 µM) | > 64 | 2 (≈ 3.25 µM) | 4 (≈ 6.5 µM) | > 64 | > 64 | 2 (≈ 3.25 µM) | > 64 | 4 (≈ 6.5 µM) |
| NCC[C@H](O)C(=O)N[C@@H]1C[C@H](N)[C@@H](O[C@H]2O[C@H](CO)[C@@H](O)[C@H](O)[C@H]2N)[C@H](O[C@@H]2O[C@H](CO)[C@@H](O[C@H]3O[C@@H](CN)[C@@H](O)[C@H](O)[C@H]3N)[C@H]2O)[C@H]1O | 8 (≈ 11.2 µM) | 2 (≈ 2.79 µM) | 2 (≈ 2.79 µM) | 4 (≈ 5.58 µM) | 2 (≈ 2.79 µM) | 8 (≈ 11.2 µM) | > 64 | 4 (≈ 5.58 µM) | 8 (≈ 11.2 µM) | 1 (≈ 1.4 µM) | 8 (≈ 11.2 µM) | 32 (≈ 44.6 µM) | 32 (≈ 44.6 µM) | 2 (≈ 2.79 µM) | 64 (≈ 89.3 µM) | 4 (≈ 5.58 µM) |
| NCC1=CC[C@H](N)[C@H](O[C@H]2[C@H](O[C@@H]3O[C@H](CO)[C@@H](O[C@@H]4O[C@H](CN)[C@H](O)[C@@H](O)[C@@H]4N)[C@H]3O)[C@@H](O)[C@H](N)C[C@@H]2N)O1 (stereo in doubt) | > 64 | > 64 | 1 (≈ 1.72 µM) | 1 (≈ 1.72 µM) | 2 (≈ 3.44 µM) | 0.5 (≈ 0.861 µM) | 1 (≈ 1.72 µM) | 8 (≈ 13.8 µM) | > 64 | 0.5 (≈ 0.861 µM) | 2 (≈ 3.44 µM) | 64 (≈ 110 µM) | 16 (≈ 27.6 µM) | 1 (≈ 1.72 µM) | > 64 | 2 (≈ 3.44 µM) |
